Here are results for four compounds from ChEMBL document CHEMBL1153667, “6N-Cinnamoyl--naltrexamine and its p-nitro derivative. High efficacy -opioid agonists with weak antagonist actions” (Bioorg Med Chem Lett, 1996).

Test [1] concerns the target T1, Kappa-type opioid receptor (Mus musculus, UniProt P33534). Briefly: Compound was evaluated for kappa opioid receptor mediated agonistic effect in mouse vas deferens(MVD) preparations; Not an agonist. The format is functional.
In a further test the target is Mu-type opioid receptor (Cavia porcellus, UniProt P97266). Briefly: Compound was evaluated for binding affinity against [3H]- DAMGO labeled mu opioid receptor in guinea-pig brain homogenate. It counts as tissue-based.
Sequence of Mu-type opioid receptor (P97266 whole entry): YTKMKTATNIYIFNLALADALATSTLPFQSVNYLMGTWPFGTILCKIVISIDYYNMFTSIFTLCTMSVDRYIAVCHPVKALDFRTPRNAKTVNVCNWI
Test [2] deals with T2, Kappa-type opioid receptor (Cavia porcellus, UniProt P41144). The test can be described thus: Compound was evaluated for kappa opioid receptor mediated agonistic effect in electrically stimulated guinea-pig ileum. It counts as functional, tissue-based.
T2 sequence (P41144 whole entry): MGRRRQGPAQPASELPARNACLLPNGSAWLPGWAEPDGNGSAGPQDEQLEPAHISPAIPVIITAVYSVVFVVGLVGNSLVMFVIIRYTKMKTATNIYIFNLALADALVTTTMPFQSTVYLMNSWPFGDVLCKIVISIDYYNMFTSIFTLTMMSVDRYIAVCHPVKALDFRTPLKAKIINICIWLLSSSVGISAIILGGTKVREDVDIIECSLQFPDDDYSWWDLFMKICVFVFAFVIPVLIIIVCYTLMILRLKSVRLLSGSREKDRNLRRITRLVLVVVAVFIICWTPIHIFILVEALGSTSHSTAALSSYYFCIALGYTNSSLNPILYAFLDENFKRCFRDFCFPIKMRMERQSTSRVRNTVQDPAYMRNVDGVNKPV
Test [3] has as its target T2, Kappa-type opioid receptor. The test can be described thus: Compound was evaluated for binding affinity against [3H]- bremazocine labeled kappa2 opioid receptor in guinea-pig brain homogenate. The format is tissue-based.
For test [4], the target named is T2, Kappa-type opioid receptor. The test can be described thus: Compound was evaluated for binding affinity against [3H]- U-69593 labeled kappa1 opioid receptor in guinea-pig brain homogenate. It counts as tissue-based.
Test [5] is filed under the species Cavia porcellus. Briefly: Antagonism by the selective kappa-antagonist nor-binaltorphimine (nor-BNl) in electrically stimulated guinea-pig ileum; No inhibition. It counts as functional.
The species named for test [6] is Cavia porcellus. The test can be described thus: Antagonism by the selective kappa-antagonist nor-binaltorphimine (nor-BNl) in electrically stimulated guinea-pig ileum. It counts as functional.
The target of test [7] is T1, Kappa-type opioid receptor. Briefly: Compound was evaluated for kappa opioid receptor mediated agonistic effect in mouse vas deferens(MVD) preparations. The format is functional.
The species entered for the next test is Mus musculus. Briefly: Antagonism by the selective kappa-antagonist nor-binaltorphimine (nor-BNl) in mouse vas deferens(MVD) preparations. The format is functional.

Activity calls are given as the source filed them. The calls are words filed in the database; no cut-off is given here.

T1 sequence (P33534 whole entry): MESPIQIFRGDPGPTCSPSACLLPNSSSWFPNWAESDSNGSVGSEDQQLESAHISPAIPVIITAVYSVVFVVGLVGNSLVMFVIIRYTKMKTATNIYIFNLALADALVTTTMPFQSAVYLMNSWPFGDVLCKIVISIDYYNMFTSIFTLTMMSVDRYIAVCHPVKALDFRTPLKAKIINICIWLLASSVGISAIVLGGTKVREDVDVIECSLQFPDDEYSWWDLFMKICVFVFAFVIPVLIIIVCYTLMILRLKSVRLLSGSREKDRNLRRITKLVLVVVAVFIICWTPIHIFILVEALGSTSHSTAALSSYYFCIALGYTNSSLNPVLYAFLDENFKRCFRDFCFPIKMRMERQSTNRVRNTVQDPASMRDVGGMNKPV

`O=C(/C=C/c1ccc([N+](=O)[O-])cc1)N[C@@H]1CC[C@@]2(O)[C@H]3Cc4ccc(O)c5c4C2(CCN3CC2CC2)[C@H]1O5`: the IC50 entry in [1] is “Not Active”; in test [2] it was 13.4 nM. Besides, the inhibition constant Ki at Mu-type opioid receptor amounted to 0.2 nM; in test [3], 30.5 nM; in test [4], 0.8 nM. Further, the Ke result in the test listed under Cavia porcellus [5] was “inactive”.
For `O=C(/C=C/c1ccccc1)N[C@@H]1CC[C@@]2(O)[C@H]3Cc4ccc(O)c5c4[C@@]2(CCN3CC2CC2)[C@H]1O5`, the Ke was found to be 0.5 nM in the test filed under Cavia porcellus [6] and 5.1 nM in the test listed under Mus musculus. For the same compound, the results for the Ki (at Mu-type opioid receptor; in test [3]; in test [4]) were 0.07 nM, 12.8 nM and 0.2 nM, respectively. Further, the IC50 was determined as 0.4 nM in test [2] and 5.6 nM in test [7].
Regarding `O=C(/C=C/c1ccc(Cl)cc1)N[C@@H]1CC[C@@]2(O)[C@H]3Cc4ccc(O)c5c4C2(CCN3CC2CC2)[C@H]1O5`, the Ke in the test filed under Cavia porcellus [6] was 0.3 nM. Further, the IC50 result is “Not Active” in test [1] and 2.2 nM in test [2]. Further, the Ki at Mu-type opioid receptor turned out to be 0.1 nM; in test [3] it was 48.3 nM; in [4] it was 0.2 nM.
`Cc1ccc(/C=C/C(=O)N[C@@H]2CC[C@@]3(O)[C@H]4Cc5ccc(O)c6c5C3(CCN4CC3CC3)[C@H]2O6)cc1`: the Ke in the test filed under Cavia porcellus [6] is recorded as 0.2 nM. Further, the Ki on Mu-type opioid receptor came out at 0.23 nM; in test [3], 171 nM; in test [4], 0.6 nM. In addition, the half-inhibitory concentration (IC50) in [2] is 12.6 nM; in test [7], 17100 nM.
